# Experimental data as given in the supplement of paper PMC10307832.
# Columns and labels:
# Test in all cases: relative viability (nuclei count vs DMSO), 5 days (fraction); higher = more cells survive
# EHT 1864 + Luminespib = compound: C1COCCN1CC2=CC(=O)C(=CO2)OCCCCCSC3=C4C=CC(=CC4=NC=C3)C(F)(F)F [EHT 1864] + CCNC(=O)c1noc(-c2cc(C(C)C)c(O)cc2O)c1-c1ccc(CN2CCOCC2)cc1 [Luminespib] (partner 0.01 µM)
# Outline: (§1)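 Dosing by pin tool came one day after lung cancer cell lines were seeded in 1536-well plates, using either one drug or a fixed anchor-drug dose plus five library-drug doses (not always all listed) in √10 steps. After 5 days, nuclei were counted on 4× images. Relative viability is treated-well nuclei count divided by vehicle-well nuclei count, and values are medians of duplicate plates.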
# EHT 1864 + Tozasertib = compound: C1COCCN1CC2=CC(=O)C(=CO2)OCCCCCSC3=C4C=CC(=CC4=NC=C3)C(F)(F)F [EHT 1864] + Cc1cc(Nc2cc(N3CCN(C)CC3)nc(Sc3ccc(NC(=O)C4CC4)cc3)n2)n[nH]1 [Tozasertib] (partner 0.1 µM)
# Outline: as §1
# EHT 1864 + Alpelisib = compound: C1COCCN1CC2=CC(=O)C(=CO2)OCCCCCSC3=C4C=CC(=CC4=NC=C3)C(F)(F)F [EHT 1864] + Cc1nc(NC(=O)N2CCC[C@H]2C(N)=O)sc1-c1ccnc(C(C)(C)C(F)(F)F)c1 [Alpelisib] (partner 2 µM)
# Outline: as §1
# EHT 1864 + Dasatinib = compound: C1COCCN1CC2=CC(=O)C(=CO2)OCCCCCSC3=C4C=CC(=CC4=NC=C3)C(F)(F)F [EHT 1864] + Cc1nc(Nc2ncc(C(=O)Nc3c(C)cccc3Cl)s2)cc(N2CCN(CCO)CC2)n1 [Dasatinib] (partner 0.075 µM)
# Outline: as §1
Cell Line,relative viability (EHT 1864 + Luminespib; first compound 0.04 µM),relative viability (EHT 1864 + Luminespib; first compound 0.1265 µM),relative viability (EHT 1864 + Luminespib; first compound 0.4 µM),relative viability (EHT 1864 + Luminespib; first compound 1.265 µM),relative viability (EHT 1864 + Luminespib; first compound 4 µM),relative viability (EHT 1864 + Tozasertib; first compound 0.04 µM),relative viability (EHT 1864 + Tozasertib; first compound 0.1265 µM),relative viability (EHT 1864 + Tozasertib; first compound 0.4 µM),relative viability (EHT 1864 + Tozasertib; first compound 1.265 µM),relative viability (EHT 1864 + Tozasertib; first compound 4 µM),relative viability (EHT 1864 + Alpelisib; first compound 0.04 µM),relative viability (EHT 1864 + Alpelisib; first compound 0.1265 µM),relative viability (EHT 1864 + Alpelisib; first compound 0.4 µM),relative viability (EHT 1864 + Alpelisib; first compound 1.265 µM),relative viability (EHT 1864 + Alpelisib; first compound 4 µM),relative viability (EHT 1864 + Dasatinib; first compound 0.04 µM),relative viability (EHT 1864 + Dasatinib; first compound 0.1265 µM),relative viability (EHT 1864 + Dasatinib; first compound 0.4 µM),relative viability (EHT 1864 + Dasatinib; first compound 1.265 µM),relative viability (EHT 1864 + Dasatinib; first compound 4 µM)
NCI-H441,0.478,0.346,0.322,0.393,0.385,0.55,0.544,0.596,0.507,0.481,0.73,0.644,0.532,0.779,0.729,0.562,0.532,0.557,0.649,0.603
NCI-H460,0.0334,0.0284,0.0337,0.0326,0.0353,0.398,0.453,0.384,0.174,0.152,0.427,0.57,0.475,0.444,0.486,0.516,0.405,0.565,0.532,0.54
NCI-H520,0.221,0.227,0.219,0.193,0.234,0.377,0.376,0.388,0.483,0.377,0.967,0.954,0.883,0.889,0.876,0.218,0.171,0.205,0.211,0.192
NCI-H596,0.953,0.986,1.03,0.972,1.05,0.843,0.733,0.869,1.06,0.754,0.524,0.529,0.506,0.434,0.514,0.701,0.592,0.533,0.554,0.664
NCI-H647,0.196,0.213,0.126,0.102,0.111,0.218,0.169,0.414,0.175,0.132,1.21,1.04,1.26,0.977,1.18,0.193,0.121,0.168,0.179,0.204
NCI-H650,0.882,0.658,0.664,0.889,0.865,0.671,0.667,0.708,0.642,0.722,1.05,,1.23,1.02,1.09,0.427,0.381,0.427,0.459,0.459
NCI-H661,0.951,0.838,0.877,0.77,0.565,0.385,0.335,0.355,0.33,0.379,0.596,0.672,0.527,0.465,0.531,0.883,0.828,0.919,0.8,0.725
NCI-H727,0.62,0.417,0.376,0.538,0.385,0.574,0.573,0.611,0.503,0.592,0.623,0.593,0.524,,0.567,0.397,0.334,0.344,0.371,0.343
NCI-H838,0.274,0.237,0.383,0.266,0.293,0.244,0.227,0.26,0.241,0.223,0.969,0.881,0.988,0.921,0.827,0.207,0.252,0.304,0.277,0.269
NCI-H1355,0.711,0.652,0.691,0.654,0.699,0.558,0.452,0.582,0.391,0.464,0.766,0.624,0.699,0.856,0.89,0.676,0.535,0.73,0.561,0.725
NCI-H1395,0.605,0.688,0.648,0.76,0.673,0.831,0.65,0.772,0.719,0.723,1.54,0.942,1.01,0.967,1.38,0.48,0.386,0.426,0.418,0.407
NCI-H1437,1.1,1.04,1.03,0.912,0.681,0.428,0.303,0.4,0.343,0.377,0.988,1.04,0.899,0.805,0.652,0.453,0.387,0.342,0.235,0.248
NCI-H1651,0.694,0.907,0.803,0.704,0.57,0.631,0.705,0.549,0.479,0.523,0.917,0.876,0.949,0.967,0.878,0.407,0.425,0.332,0.37,0.471
NCI-H1666,1,1.03,0.877,0.993,0.968,0.646,0.591,0.543,0.647,0.554,0.898,1.12,0.978,0.98,0.966,0.86,0.805,0.746,0.745,0.795
NCI-H1734,0.242,,0.222,0.182,0.179,0.282,,0.265,0.273,0.259,0.741,0.629,0.627,0.609,0.64,0.497,,0.523,0.528,0.502
NCI-H1755,0.618,0.3,0.601,0.42,0.401,0.606,0.51,0.483,0.487,0.536,0.897,0.844,0.861,0.945,0.877,0.424,0.333,0.425,0.369,0.399
